# Test results: a melting point compilation (Tetko et al.; mined from patent text by program, amines drawn as free bases though some values may be those of a salt)
row,Compound,melting point
1,CC1NC(=O)NN=C1c1ccc2sc(=O)n(CC(=O)N3CCN(CCO)CC3)c2c1 (configuration not stated),248 to 250 °C
2,COc1ccc(C2(C#N)CCC(=CC(=O)O)CC2)c2c1OCCO2 (configuration not stated),203 to 204 °C
3,CN1CCC23CC(=O)C=CC2C1Cc1cccc(Oc2nnnn2-c2ccccc2)c13 (configuration not stated),172 to 174 °C
4,CC1=C(c2ccnnc2)SCC(=O)N1,231 to 233 °C
5,N#Cc1cnc2cc(Br)ccc2c1Nc1ccc(Cl)cc1Cl,180 to 183 °C
6,CC1CC(=O)NN=C1c1cc2cc(O)c(O)cc2s1 (configuration not stated),> 270 °C
7,COc1ccc(S(=O)(=O)C2(C(=O)NO)CCN(C)CC2)cc1,89 °C
8,CC(C)(C)c1cc(C=C2SC(NC#N)=NC2=O)cc(C(C)(C)C)c1O,240 to 242 °C
9,CSc1nc(P(=O)(C2CCCCC2)C2CCCCC2)cc(P(=O)(C2CCCCC2)C2CCCCC2)n1,197 to 198 °C
10,CCNC(=O)C1=C(C(=O)Nc2cc(OC3CCCC3)c(Cl)cc2F)CCCC1,187 to 189 °C
11,CCCCCN(CCC12CC3CC(CC(C3)C1)C2)C(=O)NCC(CC)Cc1ccncc1 (configuration not stated),72 to 77 °C
12,Cc1c(C(F)(F)F)cnn(-c2ccc(Cl)c(C=C(Cl)C(=O)O)c2)c1=O,168 °C
13,C=CCn1c(S)nc2c(cnn2C)c1=O,171 to 174 °C
14,COc1cc(-c2nc3sccn3c2-c2ccnc(NC3CCN(S(=O)(=O)C4CC4)CC3)n2)ccc1F,146 to 148 °C
15,CCc1nc2c(C)c([N+](=O)[O-])c(C)nc2[nH]1,146 to 149 °C
16,N#Cc1cc(F)ccc1-c1cncc(OC2SCC(O)C(O)C2O)c1 (configuration not stated),198 to 200 °C
17,O=C(O)CCC(F)(F)C(F)(F)CCC(=O)O,204 °C
18,Cn1nc(-c2cc(S(=O)(=O)Cl)c(Cl)cc2F)c(Cl)c1C(F)(F)F,116 to 117 °C
19,COc1cc2c(cc1OC)C(=O)C(Br)C2 (configuration not stated),159 to 160 °C
20,CCCCCc1ccc(C(=O)NC2N=C(c3ccccc3)c3ccccc3NC2=O)cc1 (racemic),203 to 205 °C
21,Cc1cc(CCCCNc2nc(CO)nn2C)sc1C=O,118 to 121 °C
22,CS(=O)(=O)OCc1cn(-c2ccc(N3CCOCC3)c(F)c2)nn1,158 °C
23,COc1cc2cc(c1Cl)N(C)C(=O)CC(OC(=O)C(C)N(C)C(=O)C(C)C)C1(C)OC1C(C)C1CC(O)(NC(=O)O1)C(OC)C=CC=C(C)C2OC (configuration not stated),176 to 179 °C

row,Compound,melting point
1,CC(C)(C)OC(=O)CCC1CCC(N)CC1 (configuration not stated),39 to 40 °C
2,CC(C)N(Sc1nc2ccccc2s1)C(C)(C)C,68 to 70 °C
3,CC(=O)c1cnc(N)c(Cl)c1,188 °C
4,COC(=O)c1cc(N)nc(-c2ccc(Cl)c(F)c2F)n1,192 to 195 °C
5,NCCc1c[nH]c2ccc(NC(=O)Nc3ccccc3)cc12,192 to 194 °C
6,CC(CF)(CF)C(=O)NC(CO)c1ccc(C(C)(C)C)cc1 (configuration not stated),141 °C
7,CC#CCn1c(Oc2cc(C)cc(C)c2)c(C(C)C)c(=O)[nH]c1=O,158 to 160 °C
8,Cc1cc(C2=NN(C(=O)OC(C)(C)C)[C@H](C)Cc3cc4c(cc32)OCO4)cc(C)c1[N+](=O)[O-],222 to 223 °C
9,CCN(CC)C(=O)c1c(C(C)C)cc(OC)cc1S(N)(=O)=O,122 to 125 °C
10,CC1(C)CCC[C@]2(C)OC(=O)C[C@H]12,74 to 75 °C
11,N#CSc1ccc([N+](=O)[O-])cc1C(Cl)(Cl)Cl,72 °C
12,Cc1cc2c(c(-c3cccc(Cl)c3)c1)OC(CN)C2 (configuration not stated),90 to 93 °C
13,CC1(C)CCc2c(-c3ccoc3)nc3sc4c(NCc5ccccn5)ncnc4c3c2C1,235 to 236 °C
14,Oc1cnc(C(F)(F)F)nc1,179 to 181 °C
15,O=C1CCCCCCCCCCCCC1,56 °C
16,Oc1ccc(N=C2SCS2)cc1,162 to 163 °C
17,CONC(NC(C)=O)C(=O)NCc1ccccc1 (configuration not stated),95 to 97 °C
18,CSC(=C[N+](=O)[O-])NCCSCc1nccs1,63 to 64 °C
19,COC(=O)C(C)(C)Nc1nc(Cl)ccc1[N+](=O)[O-],96 to 97 °C
20,CC(=O)c1cc2c(c(O)c1O)OC(C)(C)CC2C (configuration not stated),153 to 154 °C
21,Cc1cc(-c2ccc(Cl)cc2)nn2c(=O)[nH]nc12,278 to 280 °C
22,O=[N+]([O-])c1ccc(-c2ccc(I)cc2C(F)(F)F)c(C(F)(F)F)c1,67 to 68 °C
23,CCCCCc1cc2c(nc(O)n2CC2CCNCC2)c(N)n1,246 to 249 °C

# Now from value to compound:
row,melting point,Compound
1,88 to 96.5 °C,CCn1cc(C(=O)O)c(=O)c2cc(F)c(N3CCN(C(=O)OC(OC(=O)C(C)c4ccc(CC(C)C)cc4)C(=O)OC(C)C)CC3)cc21 (configuration not stated)
2,255 to 258 °C,O=C(Nc1nc2ccc(Cl)cc2c2c1ncn2-c1ccccc1Cl)c1ccccc1
3,85 to 88 °C,CCOC(=O)COc1ccc(SCc2cccc3[nH]c(-c4ccc(C(F)(F)F)cc4)cc23)cc1C
4,76 °C,O=C(OCC(Cl)(Cl)Cl)N1CCCC(C(=O)OCc2ccccc2)(C(=O)OCc2ccccc2)C1
5,124 to 125 °C,O=C(OCCN1CCOC1=O)c1ccccc1Nc1ccnc2cc(C(F)(F)F)ccc12
6,162 to 164 °C,CC1CCCC(C)N1Cc1ccc2cc(NC(=O)C3(Cl)C=CC(c4ccccc4Cl)=CC3)ccc2n1 (configuration not stated)
7,134 to 136 °C,CN1N=C2C(=Cc3ccccc3)CN(C(=O)CCCl)CC2C1c1ccccc1 (configuration not stated)
8,175 to 177 °C,Cc1cccnc1Cn1nnc2ccccc21
9,284 to 289 °C,CC(C)=Cn1cnc2c(N)nc3ccccc3c21
10,173 to 174 °C,NC(=O)c1ccc(OCCNCC(O)COc2ccc(-c3csnn3)cc2)cc1 (configuration not stated)
11,174 to 176 °C,COC(=O)CCc1ccc(-n2cn[nH]c2=O)cc1
12,254 °C,Nc1cc(S(=O)(=O)CCO)ccc1Nc1ccc(N)c(S(=O)(=O)O)c1
13,138 °C,COc1ccc(CC(=O)NCc2ccccc2-c2ccccc2C(=O)NCc2ccc(F)cc2F)cc1
14,218 °C,Oc1ccc(Nc2cnc3cc(Cl)ccc3c2)cc1
15,213 to 215 °C,NC(=O)N1C(=O)C(C(=O)c2cccs2)c2ccncc21 (configuration not stated)
16,168 to 170 °C,O=C(C=CC=Cc1ccccc1)C=Cc1ccc([N+](=O)[O-])cc1
17,116 to 118 °C,COc1ccc(C2CNC(=O)C2)cc1OC(C)C(O)CN1CCN(c2ccccc2)CC1 (configuration not stated)
18,145 to 146 °C,O=C(Nc1ccccc1)N1CCc2ccccc2C1
19,76 to 81 °C,COC(=O)c1cc(CCN(C)CCCC(C#N)(c2ccc(OC)c(OC)c2)C(C)C)ccc1OC (configuration not stated)
20,161 to 162 °C,COC(=O)CNc1ccc(CCNC(=O)c2ccc(C#N)cc2)cc1
21,208 °C,Cc1nc(-c2ccc(C(F)(F)F)cc2)oc1COc1ccc(Cc2nn[nH]n2)cc1
22,44 to 46 °C,O=C(Nc1ccccc1N1CCc2cc(Cl)ccc21)c1ccccc1
23,81 to 83 °C,CC(=O)Oc1ccccc1C(=O)C1c2ccccc2C(=O)N1CCO[N+](=O)[O-] (configuration not stated)
24,300 to 303 °C,O=C(CCl)Nc1ccc2[nH]c(=O)c3ccccc3c2c1
25,102 °C,CCOCC1=NC(=Cc2cccs2)C(=O)O1
26,236 to 237 °C,COc1ccc(Sc2ccc([N+](=O)[O-])cc2)c(Cl)c1Cl

row,melting point,Compound
1,214 °C,Cc1cccc(NC(=O)NCC(=O)N(c2ccccc2)C(C)C(=O)N(C)c2ccccc2)c1 (racemic)
2,128 to 131 °C,CCOCCOc1ccc(C(=O)CN(Cc2ccccc2)Cc2ccccc2)cc1C(N)=O
3,200 to 203 °C,COc1ccc(C)cc1NC(=O)Nc1ccc(N2CCN(C(=O)Nc3c(C)cccc3OC)CC2)cc1
4,135 °C,CC(C)Cn1c(=O)n(C)c(=O)c2c(SCCCO)n(Cc3cccc4ccccc34)nc21
5,202 to 205 °C,CC(C)N1C(=O)NC(c2cnc3ccccc3c2)c2cc3c(cc21)OCO3 (configuration not stated)
6,170 to 172 °C,Cc1ccc(S(=O)(=O)NC(=O)c2cccc(OCc3csc(-c4ccccc4)n3)c2)cc1
7,157 to 159 °C,COc1ccc2c(=O)cc(CS(C)=O)oc2c1 (configuration not stated)
8,148 to 150 °C,CCN1C(=O)C(C)(C)C(=O)N(C)c2cc(CN(CCn3ccc4oc(C)c(C)c4c3=O)Cc3cc(C)nn3C)ccc21
9,235 to 238 °C,COc1cc2c3c(c1)nc(-c1ccccc1)n3CCC2=NO
10,193 to 196 °C,N#Cc1cnc2c(cc([N+](=O)[O-])c3nncc32)c(-c2ccccc2Cl)n1
11,169 to 171 °C,Cc1cnc2c(NC(=O)c3c(Cl)cccc3Cl)cccc2c1OCC=Cc1ccccc1
12,81 to 82 °C,CCOC(=O)CC[C@H](NC(=O)c1cc(CCCc2cc3c(=O)[nH]c(N)nc3[nH]2)cs1)C(=O)OCC
13,75 to 78 °C,CCOC(=O)C(Cc1ccc2ccccc2n1)(OC1CCCCO1)C(=O)OCC (configuration not stated)
14,118 °C,C(=C\c1nc2ccccc2n1-c1cccnc1)/c1ccccc1
15,94 to 96 °C,CC(=Nc1ccccc1C(C)C)Nc1ccccc1C(C)C
16,162 °C,O=C1c2c(O)ccc(O)c2C(=O)c2c(NCCN(CCO)C(=O)C(F)(F)F)ccc(NCCN(CCO)C(=O)C(F)(F)F)c21
17,145 to 175 °C,O=c1cc(O)c2ccc(OCC(O)COc3ccccc3)cc2o1 (configuration not stated)
18,280 to 282 °C,CN(c1nc(-c2cc3ccccc3[nH]c2=O)cs1)S(=O)(=O)c1ccc(Br)cc1
19,281 °C,O=c1[nH]c(=O)c2cc(C(c3ccccc3)n3cncn3)ccc2[nH]1 (configuration not stated)
20,105 to 106 °C,CCN(CC)c1cccc2nc3n(c12)C=CCCN3c1ccc(Cl)cc1Cl
21,188 to 189 °C,O=C(Nc1cccnc1)c1cccc(-c2ccc3c(c2)C(Oc2ccc(Cl)cc2Cl)CC3)c1 (configuration not stated)
22,90 to 93 °C,C=C(c1ccc(N(C)C)cc1)c1ccc(N2CCCC2)cc1C
23,199 to 200 °C,CCCCOc1c(N(C)C(=O)OC(C)(C)C)n(CC(C)C)c(=O)c2ccc(-n3cnnn3)cc12
24,403 °C,COc1ccc(-n2c(-c3ccc(-c4ccc(-c5nc6c7ccccc7c7ccccc7c6n5-c5ccc(OC)cc5)cc4)cc3)nc3c4ccccc4c4ccccc4c32)cc1
25,160 to 162 °C,CCOC(=O)c1ccc2c(c1)sc1cc(N(C)C)ccc12
